Test results published in patent US20130115293A1, “Therapeutic Polymeric Nanoparticles Comprising Corticosteroids and Methods of Making and Using Same” (priority 2009, published 2013).
Where “and” joins values, the source holds several entries; their conditions need not be identical. Equal entries are not always repeated. Where two headings read alike, the source gives them in different places. One block for each compound: values may come before it.

Tests used:
indomethacin-induced IBD = assay: Rat model of inflammatory bowel disease (indomethacin induced); type: in vivo, rats; settings: for intestinal score decrease towards normal: days -1 to 3, scored day 4; for small intestine weight decrease toward normal: days -1 to 3, weighed day 4
Protocol: Budesonide and Budesonide PTNP were compared in a model of inflammatory bowel disease (IBD) as an efficacy model of inflammation. In this model, female rats were given two subcutaneous doses of 8 mg/kg indomethacin at 24 hour intervals to induce lesions resembling those occurring in Crohn's disease in the small intestine. Intravenous daily treatment with vehicle, budesonide (0.02, 0.2 or 2 mg/kg) or budesonide PTNP (0.02, 0.2 or 2 mg/kg) or oral daily treatment with Dexamethasone (0.1 mg/kg) was initiated one day before indomethacin treatment (day −1) and continued for 5 total days (days −1 to 3). Animals were euthanized on day 4, and a 10 cm area at risk in the small intestine was scored for gross pathology and weighed.
Using a disease scoring system in which a score of 0 is normal, and a score of 5 indicates death due to IBD symptoms, normal rats have an average score of 0, and an average intestinal weight of 0.488 g.

[1] = Rat study: pharmacokinetics, plasma levels by LCMS; type: in vivo, Rats (male Sprague Dawley); settings: single intravenous dose 0.5 mg/kg; for AUC(0-inf) / clearance / Cmax / Vd / half-life: male, Sprague Dawley, iv, 0.5 mg/kg
Protocol: Rats (male Sprague Dawley, approximately 300 g with jugular cannulae) were given a single intravenous dose of 0.5 mg/kg of budesonide or passively targeted nanoparticles (PTNP) encapsulating budesonide (prepared as in Example 7) at time=0. At various times after dosing, blood samples were collected from the jugular cannulae into tubes containing lithium heparin, and plasma was prepared. Plasma levels were determined by extraction of the budesonide from plasma followed by LCMS analysis.

[2] = Solubility of drug in beta cyclodextrin (BCD) release medium; type: physicochemical
Protocol: For in vitro release studies using the procedure of Example 3, beta cyclodextrin (BCD) was evaluated as a solubilizer for maintaining sink conditions during the release of ciclesonide into the release medium.

- AUC(0-inf) ([1]; average of 6 rats, read-out: AUCinf (hr * ng/mL), Avg): 148 ng·h/mL
- clearance ([1]; average of 6 rats, read-out: Cl (mL/hr/kg), Avg (converted)): 3480 mL/h/kg
- Cmax ([1]; average of 6 rats, read-out: Cmax (ng/mL), Avg): 286 ng/mL
- Vd ([1]; average of 6 rats, read-out: Vz (mL/kg), Avg): 3740 mL/kg
- half-life ([1]; average of 6 rats, read-out: t1/2 (hr), Avg (converted)): 0.75 h
- AUC(0-inf) ([1]; individual animals, read-out: AUCinf (hr * ng/mL), individual rats): 159 ng·h/mL
- clearance ([1]; individual animals, read-out: Cl (mL/hr/kg), individual rats (converted)): 3140 mL/h/kg
- Cmax ([1]; individual animals, read-out: Cmax (ng/mL), individual rats): 324 ng/mL
- Vd ([1]; individual animals, read-out: Vz (mL/kg), individual rats): 3310 mL/kg
- half-life ([1]; individual animals, read-out: t1/2 (hr), individual rats (converted)): 0.73 h
Compound: CCCC1O[C@@H]2C[C@H]3[C@@H]4CCC5=CC(=O)C=C[C@]5(C)[C@H]4[C@@H](O)C[C@]3(C)[C@]2(C(=O)CO)O1 (some centres unmarked) [Budesonide, budesonide]
- intestinal score decrease towards normal (indomethacin-induced IBD; 0.02 mg/kg intravenous daily): 52%
- small intestine weight decrease toward normal (indomethacin-induced IBD; 0.02 mg/kg intravenous daily): 52%
- intestinal score decrease towards normal (indomethacin-induced IBD; 0.2 mg/kg intravenous daily): 53%
- small intestine weight decrease toward normal (indomethacin-induced IBD; 0.2 mg/kg intravenous daily): 53%
- intestinal score decrease towards normal (indomethacin-induced IBD; 2 mg/kg intravenous daily): 59%
- small intestine weight decrease toward normal (indomethacin-induced IBD; 2 mg/kg intravenous daily): 59%
- Cl (mL/hr/kg), individual rats ([1]; individual animals): 3966 mL/h/kg and 4611 mL/h/kg and 3104 mL/h/kg and 3151 mL/h/kg and 2892 mL/h/kg
- Cmax (ng/mL), individual rats ([1]; individual animals): 241 ng/mL and 226 ng/mL and 337 ng/mL and 306 ng/mL and 279 ng/mL
- Vz (mL/kg), individual rats ([1]; individual animals): 4291 mL/kg and 4937 mL/kg and 3104 mL/kg and 3191 mL/kg and 3627 mL/kg

- [MOM] ([2]; 10% wt BCD in PBS): 93.5 µg/mL
- [MOM] ([2]; […] wt BCD in PBS): 33.42 µg/mL
Compound: C[C@@H]1C[C@H]2[C@@H]3CCC4=CC(=O)C=C[C@]4(C)[C@@]3(Cl)[C@@H](O)C[C@]2(C)[C@@]1(OC(=O)c1ccco1)C(=O)CCl [MOM, Mometasone Furoate]

- [ciclesonide] ([2]; 10% wt BCD): 133 µg/mL
- [ciclesonide] ([2]; […] wt BCD): 17.58 µg/mL
Compound: CC(C)C(=O)OCC(=O)[C@@]12O[C@H](C3CCCCC3)O[C@@H]1C[C@H]1[C@@H]3CCC4=CC(=O)C=C[C@]4(C)[C@H]3[C@@H](O)C[C@@]12C [ciclesonide]
